# Read-outs that look alike come from different tables or passages of the source.
# Columns and labels:
# [1] = Stability in human fasted-state simulated gastric fluid and fasted-state simulated intestinal fluid; assay type: physicochemical; conditions: timepoints 0-120 min
# Experimental: The chemical stability of example compounds was determined using human fasted-state simulated gastric fluid, and fasted-state simulated intestinal fluid, prepared as follows.
# • Weigh 1.0 g NaCl and dissolved it in 0.49 L water • Adjust pH value to 1.2, and adjust volume to 0.5 L in water • Filter the NaCl/HCl buffer through a 0.22 μm filter • Weigh 3.0 mg FaSSGF powder (Vendor: Biorelevant, catalog #FFF01), dissolve it in 50 mL NaCl/HCl buffer • Dissolve the FaSSGF powder in NaCl/HCl buffer and make up the volume to 50 mL • Store at 4° C. for future use.
# • Weigh 0.695 g NaOH, 1.115 g maleic acid and 2.005 g NaCl, and dissolve in 0.49 L water • Adjusted the pH value to 6.8 and adjust volume to 0.5 L with water • Filter the maleic acid buffer through a 0.22 μm filter • Weigh 89.5 mg FaSSIF-V2 powder (Vendor: Biorelevant catalog #V2FAS01), dissolve in 50 mL maleic buffer • Dissolve the FaSSIF-V2 powder in maleic buffer and make up the volume to 50 mL • Store at 4° C. for future use.
# Briefly, test compounds were prepared as 50 μM working solutions in DMSO, and 2 μL test compound working solution was added to 98 μL of each buffer respectively in six tubes (for six timepoints, 0, 5, 15, 30, 60, and 120 min) and gently mixed. At each corresponding timepoint, the reaction was stopped by addition of 300 μL of quenching solution (methanol solution of 5 ng/mL terfenadine and 10 ng/mL of tolbutamide). Each tube was vortexed for 1 min, centrifuged at 4,000 rpm at 4° C. for 15 min, then 200 μL of supernatant was removed. The half-life of each example compound was determined using LC-MS/MS analysis, using the internal standards present in the quenching solution.
# [2] = Bidirectional Caco-2 permeability assay; assay type: in vitro ADME; conditions: human, Caco-2
# Summary of the method: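 Caco-2 monolayers (passage 39, 19-day culture, TEER >600 Ohms/cm^2) dosed A→B and B→A in duplicate, 90 min at 37 °C without shaking. Donor and receiver samples at 10 and 90 min quantified by LC/MS/MS. Papp (cm/s), efflux ratio and recovery calculated; ER >2 flags potential efflux substrate.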
# [3] = fasted-state simulated gastric fluid (FaSSGF), human fasted-state simulated gastric fluid, pH 1.2, LC-MS/MS, read-out: FaSSGF t1/2
# [4] = human fasted-state simulated intestinal fluid (FaSSIF-V2), pH 6.8, LC-MS/MS, read-out: FaSSIF t1/2
SMILES,"half-life at 1 µM [1, 3] [h]","half-life at 1 µM [1, 4] [h]",Papp A→B at 90 min [2] [×10⁻⁶ cm/s],Papp B→A at 90 min [2] [×10⁻⁶ cm/s],efflux ratio at 90 min [2]
"CCCC(=O)Nc1ncnn2c([C@]3(C#N)O[C@H](COC(=O)CC4CCCCC4)[C@@H](OC(=O)[C@@H](N)C(C)(C)C)[C@H]3O)ccc12 [Compound 1, (2R,3S,4R,5R)-5-(4-butyramidopyrrolo[2,1-f][1,2,4]triazin-7-yl)-5-cyano-2-((2-cyclohexylacetoxy)methyl)-4-hydroxytetrahydrofuran-3-yl (S)-2-amino-3,3-dimethylbutanoate]",1.61,> 6.22,6.8,8.72,1.28
"CCC(CC)C(=O)Nc1ncnn2c([C@]3(C#N)O[C@H](COC(=O)CC4CCCCC4)[C@@H](OC(=O)[C@@H](N)C(C)(C)C)[C@H]3O)ccc12 [Compound 2, (2R,3S,4R,5R)-5-cyano-2-((2-cyclohexylacetoxy)methyl)-5-(4-(2-ethylbutanamido)pyrrolo[2,1-f][1,2,4]triazin-7-yl)-4-hydroxytetrahydrofuran-3-yl (S)-2-amino-3,3-dimethylbutanoate]",> 6.22,> 6.22,4.08,6.13,1.5
"COC(C)(C)C(=O)Nc1ncnn2c([C@]3(C#N)O[C@H](COC(=O)CC4CCCCC4)[C@@H](OC(=O)[C@@H](N)C(C)(C)C)[C@H]3O)ccc12 [Compound 3, (2R,3S,4R,5R)-5-cyano-2-((2-cyclohexylacetoxy)methyl)-4-hydroxy-5-(4-(2-methoxy-2-methylpropanamido)pyrrolo[2,1-f][1,2,4]triazin-7-yl)tetrahydrofuran-3-yl (S)-2-amino-3,3-dimethylbutanoate]",0.347,> 6.22,8.49,9.3,1.1
"CC(C)(C)[C@@H](N)C(=O)OC[C@H]1O[C@@](C#N)(c2ccc3c(N)ncnn23)[C@H](O)[C@@H]1OC(=O)CC1CCCCC1 [Compound 37, ((2R,3S,4R,5R)-5-(4-aminopyrrolo[2,1-f][1,2,4]triazin-7-yl)-5-cyano-3-(2-cyclohexylacetoxy)-4-hydroxytetrahydrofuran-2-yl)methyl (R)-2-amino-3,3-dimethylbutanoate]",> 6.21,> 6.21,–,–,2.95

# From patent US20250228882A1, “ORALLY-BIOAVAILABLE NUCLEOSIDE ANALOGS” (Venatorx Pharmaceuticals, Inc., priority 2022, published 2025)
